The values that follow come from EP0442962B1, “LIPOSOMAL RADIOLOGIC CONTRAST AGENTS” (UNGER, Evan C, priority 1988, dated 1990).

The subject of one test is Male buffalo rats. Nature of the test: In vivo MR contrast enhancement (signal intensity pre and post contrast), Example 3. The note with it: for Liver + Muscle (ratio of liver enhancement to muscle enhancement) / Liver enhancement / Muscle enhancement (paraspinal muscle): scans 30 min after I.V. injection. How it is done:
All in vivo imaging was performed on a Siemens 1.5 Tesla magnet (Iselin, N.J.). Spin echo technique was utilized for both T1- and T2-weighted imaging. T1-weighted sequences utilized parameters TR/TE: 400 msec/16 msec, 4 acquisitions, 256 x 256 matrix 16 cm field view for 2 mm thick slices. For T1 calculations, images were acquired using a fixed TE of 28 msec with TR varying from 300, 500, 1500 and 3500 msec. For T2 calculations a fixed TR of 3500 msec was used with TE values of 28, 45, 70, 90 and 150 msec. T1 and T2 calculations were preformed using the software on the Magnetom System (Iselin, N.J.) by selecting a region of interest on the CRT monitor.
Male buffalo rats, weighing approximately 450 grams, were scanned using a 7.5 cm circular surface coil. The animals were scanned in the supine position, and signal intensities of liver, paraspinal muscle, kidney, renal pelvis, bladder and vascular structures were measured pre and post contrast. Rats were imaged pre and post contrast injection of either 0.4 µ Gd-DTPA liposomes (8 rats) or free Gd-DTPA (2 rats).
Injections of the 0.4 µ liposomes prepared in Example 1 were performed by tail vein injection using a 26 gauge butterfly needle. Gd-DTPA liposomes were injected over a period of approximately two minutes; liposomes were diluted with an equal volume of normal saline immediately prior to injection.

A short description of test [1]: In vitro relaxivity from phantom imaging at 1.5 Tesla, Example 4. It counts as physicochemical. The conditions noted are these: phantoms in PBS, T1. As for the experimental part:
Phantoms were prepared by diluting the vesicle preparation with Dulbecco's phosphate buffered saline (PBS) (Gibco), so as to obtain several samples for each vesicle preparation with an effective concentration of Gd-DTPA in the range 0.2-2 mmoles. Approximately 10 ml of each dilution was placed in 20 ml plastic syringes (Becton Dickinson), which were sealed with parafilm to prevent leakage and placed in a custom-built acrylic phantom holder which positioned the syringes with their long-axes horizontal within the bore of the magnet.
Phantoms were imaged using a Siemens 1.5 Tesla Magnetom whole body scanner (Iselin, N.J.) using body coil. For T1 calculations, images were acquired using spin-echo sequences with a fixed TE of 17 msec and TR values of 100, 300, 450, 600, 900, 1200, 1800, 2500 and 3500 msec. Other parameters were 4 acquisitions, 256 x 256 matrix, 30 cm field of view and 10 mm slices.

A further test has as its system Hepatic Metastases. Nature of the test: Blind study detection of hepatic metastases on MR images pre and post contrast by 5 radiologists, Example 7. The conditions noted are these: for Accuracy Post: includes adjustment for false positives; for #Post (number of metastases detected on Post contrast scans): one rat per dose, 5 radiologists; for Sensitivity Post: percentage of lesions detected on Post contrast scans. The test is classed as in vivo, rat. The text has this:
The cell line employed, C5, is a clonal derivative of a rat liver epithelial cell line initially derived from the livers of newborn Fisher rats and subsequently transformed in vitro by transfection with a plasmid containing the T24ras gene driven by the mouse metallothionein promotor. See, Li et al., P.N.A.S., Vol. 35, pp. 344 (1988); Reynolds et al., Oncogene, Vol. 323, pp. 323-330 (1987).
The tumors used in this study were generated by injecting 3 x 10⁵ cells into the superficial lobe of rat livers. Three separate injections of 10⁵ cells were made within an approximate area of 0.5 cm² under direct visualization. The tumors were allowed to grow for 14 to 17 days before imaging followed by sacrifice.
MR imaging was performed on a whole body 1.5 T Siemens Magnetom (Erlangen, West Germany) using a 15 cm Helmholtz receive only coil. Spin echo technique was used with TR/TE of 400 msec/17 msec, 2 mm slices with 4 acquisitions. Images were obtained pre and post contrast in both axial and coronal planes with post contrast images obtained from 5 to 60 minutes post contrast.
Rats were lightly sedated with ether and then fully sedated with I.P. Ketamine/Rompun 0.10 ml/100 g body weight. Contrast injections were performed by tail vein over two minutes with volume approximately 0.5 ml. Doses were as follows: free Gd-DTPA 0.5 and 0.2 mM/kg, 400 nm Gd-DTPA liposomes 0.5, 0.2 and 0.1 mM/Kg and 70 nm Gd-DTPA liposomes 0.5 and 0.2 mM/Kg with one rat injected with each dose.
Pre and post contrast images were separated and, in a blind study, five radiologists experienced in interpreting MR and oncologic imaging were given the MR images to interpret. The MR scans were presented to the radiologists randomly without knowledge of path findings or contrast agent used. The radiologists were instructed to count the number of metastases, plot lesion locations and measure lesion size. The number and sizes of lesions detected were then correlated with the histologic sections and the true number of metastases detected was determined for pre and post contrast scans. The Mann-Whitney test was used to test for statistical significance of results for lesion detection pre and post contrast.
Immediately after imaging, the rats were sacrificed by ether overdose and the livers removed and fixed in 10% formalin. The gross liver specimens were photographed and sectioned in the coronal plant at 2 mm intervals. The number of lesions were counted and size of lesions were measured to correlate with findings on MR images. Microscopic sections were prepared using hematoxylin and eosin stain and studied with light microscopy.

Another test concerns Male Wistar rats. As to the kind of experiment: In vivo MR contrast enhancement of microemulsified liposomes at 0.5 Tesla, Example 9. The conditions noted are these: control, dose of 0.1 mmoles/kg; Figure 5. How it is done:
All in vivo imaging was performed on a Toshiba MR-50A 0.5 Tesla whole body scanner. Scan parameters were TR = 400 msec TE = 15 msec, 5 mm slice, 1 mm interslice gap, 15 cm field of view with 4 acquisitions using a receive-only surface coil.
Male Wistar rats were scanned in the supine position, and signal intensities of liver, kidney and paraspinal muscle as well as urine, were measured pre and post contrast, with post contrast intervals comprising 15 minutes, 1 hour, 4 hours, 24 hours and 48 hours.
Injections of liposomes prepared as described above were made at concentrations of 0.1, 0.05 and 0.025 mM/kg, based on the weight of the rats, and were carried out by tail vein injection using a 26 gauge butterfly needle. The liposomes were injected over a period of approximately two minutes, and were first diluted with an equal volume of normal saline immediately prior to injection.

For the substance “gadolinium diethylenetriamine pentaacetic acid [Free Gd-DTPA]”, in the test on Male buffalo rats (Dose 0.109 mM/Kg), the “Liver + Muscle (ratio of liver enhancement to muscle enhancement)” value is recorded as -19.3%, the Liver enhancement came out at 0.0% and the “Muscle enhancement (paraspinal muscle)” value turned out to be 22.4%. Further, in the test on Male buffalo rats (Dose 0.218 mM/Kg), the “Liver + Muscle (ratio of liver enhancement to muscle enhancement)” value turned out to be 8.2%, the Liver enhancement is on record as 11.6% and the “Muscle enhancement (paraspinal muscle)” value worked out at 3.1%. The “enhancement on scans after injection” value in the test on Male buffalo rats (two control animals, 0.1 and 0.2 millimoles/kg) is “enhancement of renal cortex, renal pelvis and urinary bladder, but no appreciable enhancement of liver or vascular structures”. In addition, the Relaxivity in test [1] is 2.79 sec^-1 x mM^-1. Besides, in the test on Hepatic Metastases (Dose 0.2 mm/kg), the “Accuracy Post” value is reported as 0±0%, the “#Post (number of metastases detected on Post contrast scans)” value was determined as 0±0 isointense and the “Sensitivity Post” value was 0±0%. Besides, in the test on Hepatic Metastases (Dose 0.5 mm/kg), the “Accuracy Post” value is listed as 40.0±23.5%, the “#Post (number of metastases detected on Post contrast scans)” value amounted to 2.80±1.64 and the “Sensitivity Post” value came to 40.0±23.5%. Also, the “lesion detection by the five radiologists” value in the test with Hepatic Metastases (post versus pre contrast, Mann-Whitney test) is listed as “statistically significant reduction in lesion detection”. For the same substance, the “enhancement on scans (tissue to muscle ratio)” value in the test on Male Wistar rats was “no significant enhancement of the liver, kidney and urine”.
